Data from patent US20070219162A1, “Partially-fluorinated ethers, compositions and uses thereof, for long-term tamponade in the eye” (THE TRUSTEES OF COLUMBIA UNIVERSITY IN THE CITY OF NEW YORK, priority 2004, published 2007).

Assays:
[1] = Refractive index of tamponading agents; format: physicochemical; settings: Table 1
[2] = Tamponade force calculated from specific gravity difference to fluid vitreous; format: physicochemical; parameters: unit not given beside the values; settings: difference in specific gravity to fluid vitreous (1.03) multiplied by volume of tamponade agent (5 mL)
[3] = Viscosity of tamponading agents; format: physicochemical
[4] = Specific gravity of tamponading agents; format: physicochemical
From the text: Soluble Mixtures of Partially Fluorinated Ethers. The presence of the hydrocarbon chain in the structure of formula (I) has a large effect on the solubility properties of the molecule. The partially fluorinated ethers of formula (I) are completely miscible with certain perfluorocarbons, such as perfluoro-n-octane (“PFnO”) (C8F18), perfluoroethylcyclohexane (C8F16), perfluorodecalin (C10F18), and perfluorophenanthrene (C14F24). The solubility of formula (I) liquids with perfluorocarbons enables the design of soluble mixtures that can be used as long-term postoperative tamponade agents that have a specific gravity less than 1.6 or 1.5 such that the probability of retinal damage due to weight is reduced. For example, the commonly used intraoperative perfluorocarbon, PFnO, has a specific gravity of about 1.7. Thus, in order to make a soluble mixture of PFnO and DFPE (which has a specific gravity of about 1.3) that has a specific gravity less than 1.6 or 1.5, then one can use a greater amount of DFPE to reduce the specific gravity of the soluble mixture. For example, a mixture comprising about 25% PFnO and about 75% DFPE has a specific gravity of 1.39 at body temperature (see Table 1). This general strategy of mixing lighter partially fluorinated ether liquids with perfluorocarbon liquids can be conducted with any of the formula (I) liquids and a perfluorocarbon liquid, as long as they are miscible. Further, one can also make soluble mixtures between different partially fluorinated ethers in order to obtain a liquid tamponade agent that has a preferred specific gravity.
Further, one can use the strategy of mixing partially fluorinated ether liquids of formula (I) with lighter tamponade liquids, such as silicone, in order to resolve buoyancy problems and to increase tamponade force. As described previously, because silicone liquids are lighter than water and are immiscible in water, silicone liquids form a globule that rises above aqueous solutions. To rectify this problem, partially fluorinated ether liquids can be mixed with silicone liquids and oils such that soluble mixture has a specific gravity greater than 1.0. In one embodiment, partially fluorinated ether and silicone solutions have a specific gravity between about 1.00 and about 1.06. For example, DFPE can be mixed with silicone oil (such as dimethyl siloxane) and be soluble in silicone oil up to about 20% DFPE (weight to weight (w/w)). Thus, the invention contemplates DFPE and silicone mixtures where DFPE comprises between about 10% and about 20% of the solution and where silicone comprises between about 90% and about 80% of the solution. In one embodiment, a soluble mixture comprises between about 15% and about 18% (w/w) DFPE and between about 85% and about 82% (w/w) silicone oil. In another embodiment, a soluble mixture of about 18% (w/w) DFPE and about 82% (w/w) silicone oil has a specific gravity of about 1.02 at 37° C. In another embodiment, a soluble mixture of about 20% (w/w) DFPE and about 80% (w/w) silicone oil has a specific gravity of about 1.02-1.03. Perfluorocarbon liquids cannot be easily mixed with silicone liquids because perfluorocarbon liquids, not having any hydrocarbons, are only soluble up to less than about 1000 ppm with silicone.

[5] = Boiling point of tamponading agents; settings: Table 1
eye [6] = test: Gas chromatography of DFPE recovered from the eye; format: in vivo; settings: after one month of residence time in the eye
[7] = format: physicochemical
Experimental: (§1) DFPE liquid is stable. […] Further, a mixture of DFPE in silicone (20% DFPE (w/w) and 80% silicone (w/w)) is stable through daily temperature cycling (20-40° C.) through at least 18 months. Further with respect to water insolubility, a single drop of DFPE (about 50 ppm) added to one liter of water remains visible, unchanged and undissolved for long periods of time (at least greater than 8 months).

[8] = format: physicochemical; remark: listed apart in the source
From the text: Soluble Mixtures of Partially Fluorinated Ethers. The presence of the hydrocarbon chain in the structure of formula (I) has a large effect on the solubility properties of the molecule. The partially fluorinated ethers of formula (I) are completely miscible with certain perfluorocarbons, such as perfluoro-n-octane (“PFnO”) (C8F18), perfluoroethylcyclohexane (C8F16), perfluorodecalin (C10F18), and perfluorophenanthrene (C14F24). The solubility of formula (I) liquids with perfluorocarbons enables the design of soluble mixtures that can be used as long-term postoperative tamponade agents that have a specific gravity less than 1.6 or 1.5 such that the probability of retinal damage due to weight is reduced. For example, the commonly used intraoperative perfluorocarbon, PFnO, has a specific gravity of about 1.7. Thus, in order to make a soluble mixture of PFnO and DFPE (which has a specific gravity of about 1.3) that has a specific gravity less than 1.6 or 1.5, then one can use a greater amount of DFPE to reduce the specific gravity of the soluble mixture. For example, a mixture comprising about 25% PFnO and about 75% DFPE has a specific gravity of 1.39 at body temperature (see Table 1). […]

[9] = Water insolubility (single drop in one liter of water); format: physicochemical; settings: single drop (about 50 ppm) added to one liter of water
Experimental: as §1

eye [10] = settings: in vivo
From the text: FIG. 4 and FIG. 5 show results indicating the long term biocompatibility of the eye to decafluoro-di-n-pentyl ether. […] Thus, the above characteristics, combined with the specific-gravity characteristics of the partially fluorinated ethers of formula (I), allow for their long-term use in the eye without damage, and with improved efficacy, convenience and biocompatibility. […] The invention contemplates the use of liquid tamponade agents comprising partially fluorinated ethers according to formula (I) for postoperative periods such as: hours, days, weeks, 1 month, 2 months, 3 months, greater than 3 months, greater than 6 months, up to 1 year, up to 2 years or more. Period greater than 1 year are not generally required for tamponade.

[11] = approximate, no temperature stated

SMILES	Refractive Index [1]	Tamponade Force [2]	Viscosity (centistrokes at 25° C.) [3] [centistrokes]	Specific Gravity ([4]; Table 1)	Specific Gravity [4, 11]	Boiling Point [5] [°C]	changes in composition of DFPE recovered from the eye (eye [6])	stability to sunlight exposure [7]	stable over time ([7]; ambient temperature)	stable when exposed to heat ([7]; heat exposure)	Specific Gravity ([4]; at body temperature)	solubility in silicone oil [8]	time a single drop remains visible, unchanged and undissolved in water [9]	amplitudes of electroretinographic responses (eye [10])	implicit times of electroretinographic responses (eye [10])
FC(F)(F)C(F)(F)C(F)(F)C(F)(F)C(F)(F)C(F)(F)C(F)(F)C(F)(F)F [PFnO, perfluoro-n-octane]	1.27	3.65	0.8	1.76	about 1.7	105	–	–	–	–	–	–	–	–	–
FC(F)(F)C(F)(F)CCCOCCCC(F)(F)C(F)(F)F [DFPE, decafluoro-di-n-pentyl ether]	–	1.4	–	1.31	about 1.3	–	less than 0.05%	stable to sunlight exposure	at least 2 years	up to 95 °C	1.31	up to 20 % (w/w)	greater than 8 months	does not exhibit any negative effects	does not exhibit any negative effects
Fc1c(F)c(F)c2c(c1F)c(F)c(F)c1c(F)c(F)c(F)c(F)c12 [Perfluorophenanthrene, perfluorophenanthrene]	1.28	5.0	8.03	2.03	–	215	–	–	–	–	–	–	–	–	–
FC1(F)C(F)(F)C(F)(F)C2(F)C(F)(F)C(F)(F)C(F)(F)C(F)(F)C2(F)C1(F)F (stereo not shown) [Perfluorodecalin, perfluorodecalin]	1.31	4.55	2.7	1.94	–	177	–	–	–	–	–	–	–	–	–
